Assay [1] has as its target T1, MCH-1 receptor (Rattus norvegicus, UniProt P97639).
T1 construct: host or cells: in vivo, endogenous receptor of the animal
To be noted: in vivo; cited from earlier work.

Assay [2] deals with MCH-1 receptor. To be noted: rat and human MCH-1; cited from earlier work.
In assay [3] the test system is G4F-7 cells. As to conditions: cited from earlier work.
Assay [4] has as its target T2, rat MCH1 receptor (Rattus norvegicus, UniProt P97639).
T2 construct: expressed in transfected cells; host or cells: Human embryonic kidney Peak rapid 293 cells (Peakr293), transient, calcium phosphate; membranes
Nature of the assay: Radioligand binding assay at cloned rat MCH1 receptor ([3H]Compound A displacement). To be noted: cloned rat MCH1, membranes of transfected Peakr293 cells, 0.08 nM [3H]Compound A, 25° C., 90 minutes. In a few lines:
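Membranes from Peakr293 cells transiently transfected with rat MCH1 receptor were incubated with 0.08 nM [3H]Compound A in 50 mM Tris pH 7.4, 10 mM MgCl2, PMSF, 1,10-phenanthroline and 0.2% BSA, 90 min at 25° C. Bound ligand was collected by filtration; nonspecific binding was defined with […] Compound A.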

pKd, pKi: −log10 of the molar value. Where two headings read alike, the source gives them in different places.

T2 sequence (P97639 whole entry): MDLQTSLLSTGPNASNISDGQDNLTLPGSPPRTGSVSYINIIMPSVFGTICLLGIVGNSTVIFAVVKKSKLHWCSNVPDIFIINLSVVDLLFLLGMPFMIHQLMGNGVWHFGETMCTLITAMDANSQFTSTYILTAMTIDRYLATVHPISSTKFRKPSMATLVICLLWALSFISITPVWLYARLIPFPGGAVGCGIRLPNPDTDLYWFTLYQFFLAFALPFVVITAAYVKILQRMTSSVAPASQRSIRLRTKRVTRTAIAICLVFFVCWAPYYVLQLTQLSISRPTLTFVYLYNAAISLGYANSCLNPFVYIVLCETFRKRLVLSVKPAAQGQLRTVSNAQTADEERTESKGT
T1 sequence (P97639 whole entry): as above

For `CN(C)CC1CCc2cc(NC(=O)c3ccc(-c4ccc(F)cc4)cc3)ccc2C1` (stereo not drawn) [Example T-226296], the “food intake induced by the intracerebroventricular application of MCH” value in assay [1] is “inhibit food intake”. In addition, the “affinity for the MCH-1 receptor” value in assay [2] is 5 to 9 nM.
[Phe^13,Tyr^19]-MCH: the negative-log Kd (pKd) (in general, the negative decadic logarithm of the Kd, by convention in mol/L) in assay [3] (radioiodinated ligand, G4F-7 mouse melanoma cells) is 9.93.
“native MCH: Melanin-concentrating hormone, cyclic peptide”: in assay [3] (inhibition of radioiodinated [Phe13,Tyr19]-MCH binding), the negative-log Ki (pKi) (usually the negative decadic logarithm of the Ki, by convention in mol/L) is 7.92.
In the case of `CC(C)(C)c1cc(C(=O)NCCCCCCN2CCC3(CCc4ccccc43)CC2)n(Cc2ccccc2)n1` [Example 20, [3-(TERT-BUTYL)-1-BENZYL)PYRAZOL-5-YL]-N-(6-(SPIRO[INDANE-1,4′-PIPERIDINE]-10-YL)HEXYL)CARBOXAMIDE], in assay [4] (KI), the negative-log Ki (pKi) is 6.29.
Same read-out and setting: as for `Cc1ccc(C(C(=O)NCCCN2CCC3(CC2)C(=O)CCc2ccccc23)c2ccc(C)cc2)cc1` [Example 97, 2,2-BIS(4-METHYL)PHENYL)-N-[3-(2-OXOSPIRO[1,3,4-TRIHYDRONAPHTHALENE-1,4′-PIPERIDINE]-11-YL)PROPYL]ACETAMIDE], the figure is 6.37.
In the case of `O=C(NCCCCCCN1CCC2(CCc3ccccc32)CC1)c1ccc(Oc2cc(Cl)cc(Cl)c2)o1` [Example 16, [5-(3,5-DICHLOROPHENOXY)(2-FURYL)]-N-(6-(SPIRO[INDANE-1,4′-PIPERIDINE]-10-YL)HEXYL)CARBOXAMIDE], the negative-log Ki (pKi) in assay [4] (KI) is 6.35.
As for `O=C(NCCCN1CCC2(CCc3ccccc32)CC1)c1cc(Cl)cc(Cl)c1` [Example 8, (3,5-DICHLOROPHENYL)-N-(3-(SPIRO[INDANE-1,4′-PIPERIDINE]-10-YL)PROPYL)CARBOXAMIDE], the pKi in assay [4] (read-out: KI) is 6.04.
For the compound `O=C(NCCCCN1CCC2(CCc3ccccc32)CC1)c1cccc(Cl)c1` [Example 18, (3-CHLOROPHENYL)-N-(4-(SPIRO[INDANE-1,4′-PIPERIDINE]-10-YL)BUTYL)CARBOXAMIDE], the negative logarithm of the Ki (pKi) in assay [4] (read-out: KI) is 6.47.
As to `Cc1ccc(C(C(=O)NCCCN2CCC3(C=Cc4ccccc43)CC2)c2ccc(C)cc2)cc1` [Example 62, 2,2-BIS(4-METHYL)PHENYL)-N-(3-(SPIRO[INDENE-1,4′-PIPERIDINE]-10-YL)PROPYL)ACETAMIDE], in assay [4] (read-out: KI), the pKi is 7.59.
As to `O=C1OC2(CCN(CCCNC(=O)C(c3ccc(F)cc3)c3ccc(F)cc3)CC2)c2ccccc21` [Example 95, 2,2-BIS(4-FLUOROPHENYL)-N-[3-(1-OXOSPIRO[3-HYDROISOBENZOFURAN-3,4′-PIPERIDINE]-10-YL)PROPYL]ACETAMIDE], the pKi in assay [4] (read-out: KI) is 7.07.
On to `O=C(NCCCN1CCC2(CCCc3ccccc32)CC1)C(c1ccccc1)c1ccccc1` [Example 39, 2,2-DIPHENYL-N-(3-SPIRO[1,2,3,4-TETRAHYDRONAPHTHALENE-1,4′-PIPERIDINE]-11-YLPROPYL)ACETAMIDE], for which the pKi in assay [4] (read-out: KI) was 6.89.
The same measure, in the same setting: as for `O=C(NCCCN1CCC2(CC1)OCc1ccc(F)cc12)C(c1ccccc1)c1ccccc1` [Example 101, N-[3-(5-FLUOROSPIRO[1,3-DIHYDROISOBENZOFURAN-3,4′-PIPERIDINE]-10-YL)PROPYL]-2,2-DIPHENYLACETAMIDE], the figure is 8.24.
For the compound `O=C(NCCN1CCC2(CCc3ccccc32)CC1)c1cccc2ccccc12` [Example 42, NAPHTHYL-N-(2-(SPIRO[INDANE-1,4′-PIPERIDINE]-10-YLETHYL)CARBOXAMIDE], the negative-log Ki (pKi) in assay [4] (KI) was 6.26.
Regarding `Cc1onc(-c2ccccc2Cl)c1C(=O)NCCCCN1CCC2(CCc3ccccc32)CC1` [Example 35, [3-(2-CHLOROPHENYL)-5-METHYLISOXAZOL-4-YL]-N-(4-(SPIRO[INDANE-1,4′-PIPERIDINE]-10-YL)BUTYL)CARBOXAMIDE], the pKi in assay [4] (read-out: KI) is 6.08.

The record behind these values is patent publication US7335665B2, “Spirocyclic piperidines as MCH1 antagonists and uses thereof” (H - Lundbeck A/S, priority 2003, dated 2008).
